Consider three compounds from US20230065522A1 (Memorial Sloan Kettering Cancer Center, priority 2015, published 2023).

For series [1], the system named is tumor cells. The series is described as follows: in vivo confocal imaging of PARPi-fl in tumor cells (cell population drug kinetics). The source says: Concentration rapidly increases after a bolus dose followed by a slow decay (top).
The nature of series [2]: clearance from circulation and metabolic stability after IV injection. The series is classed as in vivo, mice.
Series [3] addresses T1, PARP1 (Homo sapiens, UniProt P09874).
T1 construct: endogenous in cells; host or cells: FaDu (human hypopharyngeal SCC, ATCC) subcutaneous xenografts in athymic nude mice
The series is described as follows: correlation of PARPi-fl fluorescence with PARP1 antibody staining in FaDu tumor sections. The series is classed as in vivo. The conditions noted are these: nuclear area, 222 pairs. The procedure:
222 xy pairs pooled from n=3 tumor sections.
Next, 10 μm cryosections were fixed in 4% paraformaldehyde for 8 minutes, followed by blocking with 3% (v/v) goat serum (Sigma-Aldrich, St. Louis, Mo.) in PBS. Antibodies were diluted in 1% (w/v) BSA and 0.3% (v/v) Triton X-100 in PBS. Anti-PARP1 primary antibody (sc-7150, Santa Cruz Biotechnology, Santa Cruz, Calif.) was incubated overnight at 4° C. (1 μg/ml), followed by three 10-minute washes with PBS and incubation with secondary AlexaFluor® 680 goat anti-rabbit antibody (A21076, Molecular Probes, Eugene, Oreg.) for 1 hour at 4° C. (2 μg/ml). After another 5-minute PBS wash, sections were mounted with Mowiol® (Sigma-Aldrich, St. Louis, Mo.) containing Hoechst 33342 DNA Stain (Sigma-Aldrich, St. Louis, Mo.). […] Incubating sections with either a nonspecific rabbit IgG or PBS instead of primary antibody confirmed binding specificity.

Series [4] concerns FaDu tumors. The series is described as follows: fluorescence endomicroscopy of excised FaDu tumors and control tissues. The series is classed as in vivo, mice. Conditions: 90 minutes after PARPi-fl injection. As for the experimental part: FaDu xenografts were imaged with a fluorescence endoscope that is available for both clinical and preclinical imaging (Cellvizio, Mauna Kea Technologies, Paris, France). It provides cellular to subcellular resolution and has a flexible confocal microprobe that enables versatile imaging. […] The microprobe was slowly moved over the tumor, tongue, or muscle, while a real-time video was recorded using a 488 nm excitation beam. The videos were converted to grayscale and the intensity was measured in 10 frames per video using ImageJ 1.49e Software. Topical application of PARPi-fl

For series [5], the system named is orthotopic tongue tumors (FaDutdTomato). Kind of series: topical application of PARPi-fl on orthotopic tongue tumors, confocal microscopy. The series is classed as in vivo, mice. The conditions noted are these: one minute application. As for the experimental part:
For topical application, the tongues were dipped into a well of a 96-well plate filled with the respective incubation solution. […] This was followed by cleaning of the tongue with an alcohol pad to remove residual unbound compound. The animals were imaged in the IVIS Spectrum before and after PARPi-fl application using the appropriate filter sets for detection of PARPi-fl and the tdTomato fluorescent protein. Spectral unmixing was used to separate the signals for tdTomato, PARPi-fl and autofluorescence. The tdTomato fluorescent protein allows in vivo localization of the tumor. For comparability, all images were scaled to the same maximum radiant efficiency. Imaging was repeated with sections of the excised tongues after cryofixation. […] Adjacent sections were H&E stained for morphological evaluation.

Series [6] has as its system U87 cells. Kind of series: MTT assay. The series is classed as cell-based. The conditions noted are these: U87 glioblastoma cells.
In series [7] the test system is U251 cells. Kind of series: MTT assay. The series is classed as cell-based. The conditions noted are these: U251 glioblastoma cells. In general terms: Formazan colour is commonly taken as a measure of viable cells.
Series [8] can be described thus: toxicity after local administration on the oral mucosa. The conditions noted are these: mice. The series is classed as in vivo. As for the experimental part:
[…]. Mice received blood draws after 24 h and 48 h post administration, and were then sacrificed to receive a full necropsy.

For series [9], the system named is Ca127 cells. The series is described as follows: flow cytometry of PARPi-fl uptake with and without irradiation. The series is classed as cell-based, human. As for the experimental part:
(§1) First, cells were irradiated with 0, 2, 4 and 10 Gy in 25 cm^2 culture flasks using the J.L. Shepherd Cesium irradiator (J.L. Shepherd, San Fernando, Calif.) at a dose rate of 174 cGy/min. […] Following a wash with PBS, cells were trypsinized, counted, and portions of 0.5×10^6 cells of the single cell suspension were aliquoted into 1.5 ml Eppendorf tubes (Eppendorf, Hamburg, Germany). For each time point and irradiation dose, samples were either left unstained, were stained with PARPi-fl or olaparib/PARPi-fl. […] For staining, cells were washed with 1 ml FACS buffer (1% BSA (w/v) in PBS). […] Next, cells were centrifuged, the supernatant was aspirated and cells were re-suspended in 0.5 ml FACS buffer and transferred to 5 ml round bottom flow cytometry tubes (BD Biosciences, Bedford, Mass.) through a 40 μm strainer to remove doublets and left on ice until measurement in the flow cytometer (LSR® II, BD Biosciences, Bedford, Mass.). For each measurement, 10,000 events were counted. Raw data were processed in FlowJo software in order to calculate the changes in PARPi-fl uptake after irradiation. Cell clumps and debris were eliminated using the corresponding gates (forward and side scatter) for the unstained cell population. The gates were applied to all stained samples. PARPi-fl fluorescence was imaged in the FITC channel against side scatter (area).

In series [10] the test system is FaDu cells. The description is as above. The series is classed as cell-based, human. As for the experimental part:
as §1

Series [11] can be described thus: tissue permeability.
Series [12] is described as follows: pharmacokinetic profile of ^18F-PARPi in a tumor-free mouse. The series is classed as in vivo. As for the experimental part: Bone uptake amounts for 6% ID/g. While low, imaging in larger mammals typically reduces bone-uptake further due to slower metabolic degradation.
The blood half-life, serum stability, and metabolic stability of ^18F-PARPi was determined. Blood half-lives were determined after the injection of ˜15 μCi of the ^18F-labeled species into C57BL/6J (B6) mice and blood (5-10 μL) drawn at different time points via saphenous vein bleeds. FIGS. 13A-13B show an image acquired at 60 minutes. The drawn blood was both counted as well as analyzed using a HPLC-MS equipped with both a fluorescence detector as well as a parallel radiodetector. Organs were homogenized. Next, the bimodal imaging agent was extracted and radioactive/fluorescent metabolites were analyzed using HPLC. All major organs were weighed, and their […] activity was measured using a scintillation counter. The injected dose per gram tissue (% ID/g) was determined.

The conditions of series [13]: cited from earlier work.
Series [14] relates to subcutaneous FaDu tumors. The series is described as follows: ex vivo epifluorescence imaging of PARPi-fl uptake, subcutaneous FaDu xenografts and normal tissues.
Method: Animals were sacrificed 90 minutes post-injection and tumors, tongues, trachea, and muscle were excised and imaged using epifluorescence imaging (IVIS Spectrum, PerkinElmer, Waltham, Mass.). […] This measure carries the unit [p/s/cm^2/sr]/[μW/cm^2] and is defined as the number of photons per second leaving a square centimeter of tissue and radiating into a solid angle of one steradian (sr).
Setting [15] is: oral mucosa, 20 μl of 400 μM solution.
[16] abbreviates: topical oral mucosa, 29 nmol in 50 μL, 10 min.
Setting [17] is: 48 hours after 10 Gy irradiation.
[18] abbreviates: non-irradiated, olaparib co-incubated with PARPi-fl (50-fold excess).

By IC50 is commonly meant the concentration at which inhibition is half-maximal. A lower IC50 goes with inhibition by little substance.

T1 sequence (P09874 whole entry, species assumed): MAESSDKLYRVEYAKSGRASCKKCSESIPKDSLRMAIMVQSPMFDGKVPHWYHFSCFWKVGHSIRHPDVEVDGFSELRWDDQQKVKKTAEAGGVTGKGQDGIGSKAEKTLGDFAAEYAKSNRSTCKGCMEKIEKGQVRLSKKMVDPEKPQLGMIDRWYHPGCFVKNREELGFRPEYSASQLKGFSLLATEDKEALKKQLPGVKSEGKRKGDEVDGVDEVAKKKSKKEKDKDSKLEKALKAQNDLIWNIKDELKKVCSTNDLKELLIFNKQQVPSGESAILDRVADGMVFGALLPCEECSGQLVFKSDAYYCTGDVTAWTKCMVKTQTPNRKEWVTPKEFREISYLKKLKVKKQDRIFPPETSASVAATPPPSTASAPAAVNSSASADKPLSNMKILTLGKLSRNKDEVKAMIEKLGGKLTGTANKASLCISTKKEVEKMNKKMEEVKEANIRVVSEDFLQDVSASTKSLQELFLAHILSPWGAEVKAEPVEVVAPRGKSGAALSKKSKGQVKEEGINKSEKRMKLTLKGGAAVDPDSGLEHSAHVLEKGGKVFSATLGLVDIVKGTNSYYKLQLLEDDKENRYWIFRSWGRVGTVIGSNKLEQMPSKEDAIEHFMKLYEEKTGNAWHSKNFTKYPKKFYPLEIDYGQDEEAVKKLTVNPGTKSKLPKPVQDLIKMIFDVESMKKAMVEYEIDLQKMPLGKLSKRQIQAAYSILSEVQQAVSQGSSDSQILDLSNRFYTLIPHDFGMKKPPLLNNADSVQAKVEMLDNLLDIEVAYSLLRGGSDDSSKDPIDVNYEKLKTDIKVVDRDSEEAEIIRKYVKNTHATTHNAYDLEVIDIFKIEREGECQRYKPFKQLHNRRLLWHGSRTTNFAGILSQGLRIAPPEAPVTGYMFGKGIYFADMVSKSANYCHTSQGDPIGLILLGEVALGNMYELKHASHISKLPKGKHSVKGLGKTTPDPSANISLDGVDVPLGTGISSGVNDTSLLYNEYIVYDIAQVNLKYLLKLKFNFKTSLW

Take `Cc1cc(C)n2c1C=C1C=CC(CCC(=O)N3CCN(C(=O)c4cc(Cc5n[nH]c(=O)c6ccccc56)ccc4F)CC3)=[N+]1[B-]2(F)F` [PARPi-fl]: the “average cellular drug concentration” value in series [1] (tumor cells in vivo after bolus dose, FIG. 9B) is 1.2 µM. Also, in series [1] (uptake within tumor tissue), the “cells targeted within tumor tissue” value was “greater than 99.8%” and the “concentration in targeted tumor cells” value amounted to 1900 ± 500 nM. Also, the metabolites entry in series [2] (mice, 30 min post injection) is “less than 50%”. For the same compound, in series [2] (mice, IV injection, clearance from circulation), the β half-life was determined as 1.47 h. For the same compound, the “time of peak uptake in subcutaneous tumors” value in series [2] (post injection) is 30 min. The “co-localization with PARP1 antibody staining, Rcoloc.” value in series [3] is reported as 0.986. The compound also came in with an average signal intensity in series [4] (FaDu tumors) of 35.4±8.6 AU. In series [4] (thigh muscle), this compound returned an average signal intensity of 15.1±2.4 AU. In [4] (tongue), this compound yielded an average signal intensity of 18.5±6.9 AU. Further, in series [5], the “penetration depth into tumor tissue” value is “up to 300 μm”. In series [6], this compound had a half-maximal inhibitory concentration (IC50) of 24 µM. Besides, the half-maximal inhibitory concentration (IC50) in series [7] was 5.5 µM. Further, in series [8] (setting [15]), the “changes in clinical chemical and hematologic parameters” value is “no changes”; the local irritation result is listed as “no local irritation”. Further, in series [8] (setting [16]), the ALP amounted to 90 ± 18 IU/L, the “ALT (SGPT)” value came to 31 ± 6 IU/L, the “AST (SGOT)” value is 67 ± 4 IU/L and the Albumin was determined as 2.7 ± 0.2 g/dL. In series [8] (setting [16]), the BA % is listed as 0.2 ± 0.3%, the BASOPHILS turned out to be 0.01 ± 0.02 K/μL, the BUN stood at 28 ± 2 mg/dL and the Calcium worked out at 9.6 ± 0.2 mg/dL. Besides, in series [8] (setting [16]), the Chloride was 114 ± 1 mEq/L, the Cholesterol turned out to be 86 ± 8 mg/dL, the Creatinine amounted to 0.24 ± 0.01 mg/dL and the EO % was 5.5 ± 1.0%. Besides, in series [8] (setting [16]), the EOSINOPHIL was determined as 0.64 ± 0.55 K/μL, the GGT stood at 0 IU/L, the Globulin turned out to be 2.3 ± 0.7 g/dL and the Glucose is 229 ± 54 mg/dL. In series [8] (setting [16]), this compound displayed an HB of 15.1 ± 0.9 g/dL, an HCT of 50.4 ± 2.9%, an LY % of 57.0 ± 10.9% and an LYMPHOCYT of 3.34 ± 1.07 K/μL. Further, in series [8] (setting [16]), the MCH came to 14.7 ± 0.4 pg, the MCHC stood at 30.0 ± 0.1 g/dL, the MCV is on record as 49.3 ± 1.2 fL and the MO % is listed as 1.9 ± 0.8%. In series [8] (setting [16]), the MONOCYTE came to 0.10 ± 0.04 K/μL, the MPV stood at 6.1 ± 0.2 fL, the NE % is on record as 29.5 ± 4.0% and the NEUTROPHI came out at 1.69 ± 0.04 K/μL. In series [8] (setting [16]), this compound displayed a PLT of 1077 ± 171 K/μL, a Phosphorus of 6 ± 1 mg/dL, a Potassium of 3.8 ± 0.7 mEq/L and an RBC of 10.24 ± 0.62 M/μL. Also, in series [8] (setting [16]), the RDW came out at 23.4 ± 0.6%, the Sodium turned out to be 151 ± 3 mEq/L, the “Total Bilirubin” value is 0.1 ± 0.0 mg/dL and the “Total Protein” value was determined as 4.9 ± 0.8 g/dL. For the same compound, in [8] (setting [16]), the WBC is recorded as 5.78 ± 0.90 K/μL. Besides, in [9] (setting [17]), the “PARPi-fl signal compared to non-irradiated cells” value was 136.0±16.6%. Moreover, the “PARPi-fl signal compared to non-irradiated cells” value in series [10] (setting [17]) is 145.4±7.3%. The same compound gave a tissue permeability in series [11] of 4.7±2.5 μm/s.
`CC1=CC(C)=[N+]2C1=Cc1ccc(CCC(=O)N3CCN(C(=O)c4cc(Cc5n[nH]c(=O)c6ccccc56)ccc4F)CC3)n1[B-]2(F)[18F]` (stereo not shown) [^18F-PARPi] showed a bone uptake in [12] of 6 % ID/g.
Turning to `O=C(c1cc(Cc2n[nH]c(=O)c3ccccc23)ccc1F)N1CCN(C(=O)C2CC2)CC1` [olaparib, 4-[(3-[(4-cyclopropyl-carbonyl)piperazin-4-yl]carbonyl)-4-fluorophenyl]methyl (2H)phthalazin-1-one], the IC50 is 28 µM in series [6] (Homo sapiens, U-87 MG) and 8 µM in series [7] (Homo sapiens, U-251). In addition, the “effect on PARPi-fl uptake” value in [9] (setting [18]) and in series [10] (setting [18]) was “almost completely suppressed” throughout. The excreted result in series [13] (^14C-labeled olaparib, within 7 days) is “More than 86%”. In addition, the terminal half-life in [13] (after a 400 mg dose) was 11.9 h. For the same compound, the tolerability result in series [13] (approved dose and schedule, 400 mg orally twice daily) is given as “well tolerated”. Moreover, the “apparent volume of distribution” value in series [13] (oral administration) is reported as “more than 150 L”. In [13] (oral administration), the “time of peak plasma concentrations after dosing” value was 1 to 3 h. Moreover, the “inhibition of PARPi-fl tumor uptake by xenografts” value in [14] (coinjection with PARPi-fl) is reported as “almost completely inhibited”. In series [14] (olaparib injected before PARPi-fl (50-fold excess, 30 min prior)), the “reduction of the fluorescent signal of the tumor” value is listed as 60%.
